Experimental data published in patent publication US11987648B2, “Cyclohexapeptides as selective somatostatin SST5 receptor agonists” (Heptares Therapeutics Limited, priority 2018, dated 2024).
Where two headings read alike, the source gives them in different places. *1 amine or outer side, *2 acyl side, *3 side chain or, on linkers, in order; H or OH if unused. Where a SMILES comes first, the peptide text is derived from it. Side-chain parts run from the residue outwards. [ ]: non-standard residue; d: D form. The star is where a group is joined. Ala(piperidin-4-yl) = O=C([C@H](CC1CCN([*:3])CC1)N[*:1])[*:2]; Ala(piperazin-1-yl) = N[C@@H](CN1CCNCC1)C(=O)O; X7 = NCCOC(=O)N1CCN([*:1])[C@H](C(=O)[*:2])C1; Pro(4,4-F2) = O=C(O)[C@@H]1CC(F)(F)CN1; Ethylenediamine = C(CN[*:2])N[*:1]; d(hPhe) = N[C@H](CCc1ccccc1)C(=O)O; Hyp = O=C(O)[C@@H]1C[C@@H](O)CN1; Pip(4-aza) = O=C(O)[C@@H]1CNCCN1; hPhe = N[C@@H](CCc1ccccc1)C(=O)O; 3Pal = N[C@@H](Cc1cccnc1)C(=O)O; Cyclohexylmethyl = C1CCC(C*)CC1; Tic = O=C(O)[C@@H]1Cc2ccccc2CN1; Phg = N[C@H](C(=O)O)c1ccccc1; Pip = O=C(O)[C@@H]1CCCCN1; X3 = CN[C@H]1CCN(*)C1; CO = O=C([*:1])[*:2]; Bn = c1ccc(C*)cc1

Experiments:
SST5 = SST5 (Homo sapiens, UniProt P35346); assay: Hit Hunter cAMP XS+ assay, SST5 activation via Gi (reduction of forskolin-stimulated cAMP); format: cell-based; conditions: for Emax: read-out: SST5 (EMax); for SST5/2 Selectivity: selectivity for SST5 over SST2
In short: (§1)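 Cells (10,000/well) incubated 30 min at 37 °C with compound under EC80 forskolin ([…] for SST2, 15 μM for SST5). cAMP reduction was detected by enzyme-fragment complementation chemiluminescence after 60 min and 180 min room-temperature reagent steps. Potency and efficacy were both measured.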

SST2 = SST2 (Homo sapiens, UniProt P30874); assay: Hit Hunter cAMP XS+ assay, SST2 activation via Gi (reduction of forskolin-stimulated cAMP); format: cell-based; conditions: for Emax: read-out: SST2 (EMax)
In short: as §1

[1] = Phase II trial, hepatocellular carcinoma; cited from earlier work
[2] = Phase I trial, pancreatic cancer, combination treatment with gemcitabine; cited from earlier work
[3] = reduction of forskolin-stimulated cAMP, 4-parameter logistic fit, read-out: SST5 pEC50 (converted)
[4] = reduction of forskolin-stimulated cAMP, 4-parameter logistic fit, read-out: SST2 pEC50 (converted)
[5] = efficacy normalised to somatostatin 28 (basal 0%, 100% = signal with 50 nM somatostatin 28)

Chain of SST2 (P30874 whole entry): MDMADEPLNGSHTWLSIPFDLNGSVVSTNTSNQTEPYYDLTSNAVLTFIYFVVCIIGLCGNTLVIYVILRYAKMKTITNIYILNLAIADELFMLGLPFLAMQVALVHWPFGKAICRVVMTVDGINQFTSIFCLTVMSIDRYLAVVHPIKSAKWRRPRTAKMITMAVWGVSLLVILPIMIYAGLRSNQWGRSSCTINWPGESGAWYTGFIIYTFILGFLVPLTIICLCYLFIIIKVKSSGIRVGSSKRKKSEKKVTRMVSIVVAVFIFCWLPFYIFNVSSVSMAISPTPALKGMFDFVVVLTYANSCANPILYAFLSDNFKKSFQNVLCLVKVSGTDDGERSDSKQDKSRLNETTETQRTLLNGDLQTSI
Chain of SST5 (P35346 whole entry, the tested form may be a part): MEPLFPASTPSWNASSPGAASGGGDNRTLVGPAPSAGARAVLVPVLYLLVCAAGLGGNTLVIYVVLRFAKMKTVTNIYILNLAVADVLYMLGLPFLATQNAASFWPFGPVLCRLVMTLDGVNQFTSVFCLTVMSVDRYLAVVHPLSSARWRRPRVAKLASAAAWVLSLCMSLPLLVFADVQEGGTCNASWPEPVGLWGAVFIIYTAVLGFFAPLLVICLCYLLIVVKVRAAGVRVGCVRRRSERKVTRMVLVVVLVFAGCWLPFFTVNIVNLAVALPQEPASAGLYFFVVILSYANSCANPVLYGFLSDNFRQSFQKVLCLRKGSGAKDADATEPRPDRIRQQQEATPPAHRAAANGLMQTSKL

Compound	Emax (SST5)	EC50 (SST5; [3])	SST5/2 Selectivity (SST5)	Emax (SST2)	EC50 (SST2; [4])	EC50 (SST5)	patients with limitation of disease progression [1]	EC50 (SST2)	disease control rate [2]	SST5 (EMax) (SST5; [5])	SST2 (EMax) (SST2; [5])
NCCNC(=O)O[C@@H]1C[C@H]2C(=O)N[C@@H](CCc3ccccc3)C(=O)N[C@H](Cc3c[nH]c4ccccc34)C(=O)N[C@@H](CN3CCNCC3)C(=O)N[C@@H](Cc3ccc(OCc4ccccc4)cc3)C(=O)N3CCCC[C@H]3C(=O)N2C1 [Example 69] (cyclo([Hyp]([CO-Ethylenediamine])[hPhe][dW][Ala(piperazin-1-yl)]Y(Bn)[Pip]))	103%	79.4 nM	124.3	69%	> 10000 nM						
NCCNC(=O)O[C@@H]1C[C@H]2C(=O)N[C@@H](CCc3ccccc3)C(=O)N[C@H](Cc3c[nH]c4ccccc34)C(=O)N[C@@H](CN3CCNCC3)C(=O)N[C@@H](Cc3ccc(OCc4ccccc4)cc3)C(=O)N3CC(F)(F)C[C@H]3C(=O)N2C1 [Example 70] (cyclo([Hyp]([CO-Ethylenediamine])[hPhe][dW][Ala(piperazin-1-yl)]Y(Bn)[Pro(4,4-F2)]))	102%	5.01 nM	1815.8	77.9%	> 10000 nM						
NCCNC(=O)O[C@@H]1C[C@H]2C(=O)N[C@H](CCc3ccccc3)C(=O)N[C@H](Cc3c[nH]c4ccccc34)C(=O)N[C@@H](CN3CCNCC3)C(=O)N[C@@H](Cc3ccc(OCC4CCCCC4)cc3)C(=O)N[C@@H](Cc3cccnc3)C(=O)N2C1 [Example 71] (cyclo([3Pal][Hyp]([CO-Ethylenediamine])[d(hPhe)][dW][Ala(piperazin-1-yl)]Y(Cyclohexylmethyl)))	103%	63.1 nM	171.4	52.8%	> 10000 nM						
NCCOC(=O)N1CCN2C(=O)[C@@H]3Cc4ccccc4CN3C(=O)[C@H](Cc3ccc(OCc4ccccc4)cc3)NC(=O)[C@H](CN3CCNCC3)NC(=O)[C@@H](Cc3c[nH]c4ccccc34)NC(=O)[C@H](CCc3ccccc3)NC(=O)[C@@H]2C1 [Example 72] (cyclo([Tic][X7][hPhe][dW][Ala(piperazin-1-yl)]Y(Bn)))	101%	6.31 nM	1621.3	14%	> 10000 nM						
O=C1N[C@@H](Cc2ccc(OCc3ccccc3)cc2)C(=O)N2Cc3ccccc3C[C@H]2C(=O)N2CCNC[C@H]2C(=O)N[C@@H](CCc2ccccc2)C(=O)N[C@H](Cc2c[nH]c3ccccc23)C(=O)N[C@H]1CC1CCNCC1 [Example 73] (cyclo([Tic][Pip(4-aza)][hPhe][dW][Ala(piperidin-4-yl)]Y(Bn)))	94.9%	0.631 nM	566.7	99.2%	398 nM						
CN[C@H]1CCN(C(=O)O[C@@H]2C[C@H]3C(=O)N[C@@H](CCc4ccccc4)C(=O)N[C@H](Cc4c[nH]c5ccccc45)C(=O)N[C@@H](CC4CCNCC4)C(=O)N[C@@H](Cc4ccc(OCc5ccccc5)cc4)C(=O)N4Cc5ccccc5C[C@H]4C(=O)N3C2)C1 [Example 78] (cyclo([Hyp]([CO-X3])[hPhe][dW][Ala(piperidin-4-yl)]Y(Bn)[Tic]))	106%	1.26 nM	2726.7	76.2%	3160 nM						
NCCCC[C@@H]1NC(=O)[C@@H](Cc2c[nH]c3ccccc23)NC(=O)[C@H](c2ccccc2)NC(=O)[C@@H]2C[C@@H](OC(=O)NCCN)CN2C(=O)[C@H](Cc2ccccc2)NC(=O)[C@H](Cc2ccc(OCc3ccccc3)cc2)NC1=O [pasireotide, reference compound] (cyclo([Hyp]([CO-Ethylenediamine])[Phg][dW]KY(Bn)F))	102%		3.8	100%		0.251 nM	45%	1 nM	68%		
somatostatin 28 [reference compound]			4.6							101.0%	100.4%
